Assay results reported in patent publication US8785436B2, “1,3-oxazines as BACE 1 and/or BACE2 inhibitors” (Hoffmann-La Roche Inc., priority 2011, dated 2014).
pIC50: −log10 of the molar value.

Tests used:
[1] = target: T1, BACE2 (Rattus norvegicus, UniProt Q6IE75); experiment: BACE inhibition by measuring cellular TMEM27 cleavage (INS-TMEM27 cells, ELISA); format: cell-based; conditions: INS-TMEM27 (Ins1e rat) cells, shed human TMEM27 by ELISA; read-out: BACE2 cell act. IC50
T1 construct: endogenous cellular BACE2 in the Ins1e rat cell line; endogenous in cells; host or cells: INS-TMEM27 (INS1e-derived rat cell line with TetOn-inducible full-length hTMEM27)
T1 sequence (Q6IE75 63-514): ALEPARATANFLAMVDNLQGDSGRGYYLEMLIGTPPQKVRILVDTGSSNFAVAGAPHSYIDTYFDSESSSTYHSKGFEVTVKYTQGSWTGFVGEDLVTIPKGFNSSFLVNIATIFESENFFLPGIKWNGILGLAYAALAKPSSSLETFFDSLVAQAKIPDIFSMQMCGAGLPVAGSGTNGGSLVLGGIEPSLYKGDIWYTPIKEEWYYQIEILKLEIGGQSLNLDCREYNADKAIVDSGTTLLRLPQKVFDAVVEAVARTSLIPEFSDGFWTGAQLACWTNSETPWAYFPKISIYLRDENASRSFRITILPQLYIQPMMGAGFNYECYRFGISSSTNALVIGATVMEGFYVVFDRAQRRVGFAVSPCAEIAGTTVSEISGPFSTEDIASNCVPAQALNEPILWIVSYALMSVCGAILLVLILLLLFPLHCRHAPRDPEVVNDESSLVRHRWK
From the text: Assay for BACE Inhibition by Measuring Cellular TMEM27 Cleavage:
The assay uses the principle of inhibition of human TMEM27 cleavage by endogenous cellular BACE2 in the Ins1e rat cell line and shedding from the cell surface into the culture medium, followed by detection in an ELISA assay Inhibition of BACE2 prevents the cleavage and shedding in a dose-dependent manner.
The stable cell line “INS-TMEM27” represents an INS1e-derived cell line with inducible expression (using the TetOn system) of full-length hTMEM27 in a doxycycline-dependent manner. The cells are cultured throughout the experiment in RPMI1640+Glutamax (Invitrogen) Penicillin/Streptomycin, 10% Fetal bovine serum, […], […], 100 micrograms/ml G418 and 100 microgram/ml hygromycin and are grown inadherent culture at 37° C. in a standard CO2 cell culture incubator.
INS-TMEM27 cells are seeded in 96-well plates. After 2 days in culture, BACE2 inhibitor is added in a range of concentrations as required by the assay and after a further two hours, doxycycline is added to a final concentration of 500 ng/ml. The cells are incubated for a further 46 hours and the supernatant harvested for detection of shed TMEM27.
An ELISA assay (using a pair of mouse anti-human-TMEM27 antibodies, raised against the extracellular domain of TMEM27) is used for detection of TMEM27 in the culture medium. An EC50 for BACE2 inhibition is calculated using the ELISA readout for each inhibitor concentration with standard curve-fitting software such as XLFit for the Excel spreadsheet program.

[2] = target: T2, BACE1 (Homo sapiens, UniProt P56817); experiment: Cellular Aβ-lowering assay a) (Aβ40 ELISA, HEK293 APP cells); format: cell-based; conditions: cellular assay a): HEK293 APP695 cells, 18-20 hrs incubation, read-out: BACE1 cell act. Aβ40 IC50
T2 construct: Human HEK293 cells which are stably transfected with a vector expressing a cDNA of the human APP wt gene (APP695); endogenous in cells; host or cells: HEK293 cells stably expressing human APP695 wt
T2 sequence (P56817 46-501): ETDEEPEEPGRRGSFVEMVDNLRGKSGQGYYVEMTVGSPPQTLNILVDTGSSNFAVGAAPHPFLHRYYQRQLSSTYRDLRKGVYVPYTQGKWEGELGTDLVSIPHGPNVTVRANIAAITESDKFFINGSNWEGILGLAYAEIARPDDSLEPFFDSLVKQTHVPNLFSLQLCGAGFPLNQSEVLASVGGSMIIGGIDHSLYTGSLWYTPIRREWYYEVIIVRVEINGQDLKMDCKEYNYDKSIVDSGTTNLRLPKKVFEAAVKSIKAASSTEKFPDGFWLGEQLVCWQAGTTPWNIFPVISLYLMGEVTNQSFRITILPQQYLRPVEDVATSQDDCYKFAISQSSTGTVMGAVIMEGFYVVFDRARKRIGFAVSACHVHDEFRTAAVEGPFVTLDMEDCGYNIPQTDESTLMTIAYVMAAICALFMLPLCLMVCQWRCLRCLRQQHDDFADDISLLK
Method: Cellular Aβ-Lowering Assay:
a) Human HEK293 cells which are stably transfected with a vector expressing a cDNA of the human APP wt gene (APP695) were used to assess the potency of the compounds in a cellular assay. The cells were seeded in 96-well microtiter plates in cell culture medium (Iscove, plus 10% (v/v) fetal bovine serum, glutamine, penicillin/streptomycin) to about 80% confluence and the compounds were added at a 10× concentration in 1/10 volume of medium without FCS containing 8% DMSO (final concentration of DMSO was kept at 0.8% v/v). After 18-20 hrs incubation at 37° C. and 5% CO2 in a humidified incubator the culture supernatant was harvested for the determination of Aβ40 concentrations. 96 well ELISA plates (e.g., Nunc MaxiSorb) were coated with monoclonal antibody which specifically recognize the C-terminal end of Aβ40 (Brockhaus et al., NeuroReport 9, 1481-1486; 1998). After blocking of non-specific binding sites with e.g. 1% BSA and washing, the culture supernatants were added in suitable dilutions together with a horseradish peroxidase-coupled Aβ detection antibody (e.g., antibody 4G8, Senetek, Maryland Heights, Mo.) and incubated for 5 to 7 hrs. Subsequently the wells of the microtiter plate were washed extensively with Tris-buffered saline containing 0.05% Tween 20 and the assay was developed with tetramethylbenzidine/H2O2 in citric acid buffer. After stopping the reaction with one volume 1 NH2SO4 the reaction was measured in an ELISA reader at 450 nm wavelength. The concentrations of Aβ in the culture supernatants were calculated from a standard curve obtained with known amounts of pure Aβ peptide.

| pIC50 [1] | pIC50 [2] | SMILES |
| --- | --- | --- |
| 7.17 |  | Cc1nc(C(C)Nc2ccc(F)c([C@@]3(C)N=C(N)OC[C@]3(C)F)c2)c(C(F)(F)F)o1 (mixture of isomers) [Example 14, (4R,5R)-5-Fluoro-4-{2-fluoro-5-[(RS)-1-(2-methyl-5-trifluoromethyl-oxazol-4-yl)-ethylamino]-phenyl}-4,5-dimethyl-5,6-dihydro-4H-[1,3]oxazin-2-ylamine] |
| 6.12 | 7.96 | C[C@]1(c2cc(NC3CCc4cc(C#N)cnc43)ccc2F)N=C(N)OCC1(F)F (mixture of isomers) [Example 22, (RS)-7-[3-((R)-2-Amino-5,5-difluoro-4-methyl-5,6-dihydro-4H-[1,3]oxazin-4-yl)-4-fluoro-phenylamino]-6,7-dihydro-5H-[1]pyrindine-3-carbonitrile] |
| 5.77 | 7.14 | C[C@]1(c2cc(NC3CCc4cc(Cl)cnc43)ccc2F)N=C(N)OCC1(F)F (mixture of isomers) [Example 23, [3-((R)-2-Amino-5,5-difluoro-4-methyl-5,6-dihydro-4H-[1,3]oxazin-4-yl)-4-fluoro-phenyl]-((RS)-3-chloro-6,7-dihydro-5H-[1]pyrindin-7-yl)-amine] |
| 6.74 | 7.89 | C[C@@]1(c2cc(NCc3nn(C(F)F)cc3Cl)ccc2F)CCOC(N)=N1 [Example 1, (S)-4-{5-[(4-Chloro-1-difluoromethyl-1H-pyrazol-3-ylmethyl)-amino]-2-fluoro-phenyl}-4-methyl-5,6-dihydro-4H-[1,3]oxazin-2-ylamine] |
| 6.01 | 6.51 | COc1ccccc1Nc1ccc(F)c([C@@]2(C)N=C(N)OC[C@@H]2F)c1 [Example 3, (4R,5R)-5-Fluoro-4-[2-fluoro-5-(2-methoxy-phenylamino)-phenyl]-4-methyl-5,6-dihydro-4H-[1,3]oxazin-2-ylamine] |
| 5.74 | 6.43 | C[C@]1(c2cc(Nc3ccccc3OC(F)F)ccc2F)N=C(N)OC[C@@H]1F [Example 4, (4R,5R)-4-[5-(2-Difluoromethoxy-phenylamino)-2-fluoro-phenyl]-5-fluoro-4-methyl-5,6-dihydro-4H-[1,3]oxazin-2-ylamine] |
| 5.95 | 6.27 | C[C@]1(c2cc(NCc3cccs3)ccc2F)N=C(N)OC[C@@H]1F [Example 5, (4R,5R)-5-Fluoro-4-{2-fluoro-5-[(thiophen-2-ylmethyl)-amino]-phenyl}-4-methyl-5,6-dihydro-4H-[1,3]oxazin-2-ylamine] |
| 6.62 | 6.11 | C[C@]1(c2cc(NCc3ccccc3F)ccc2F)N=C(N)OC[C@@H]1F [Example 7, (4R,5R)-5-Fluoro-4-[2-fluoro-5-(2-fluoro-benzylamino)-phenyl]-4-methyl-5,6-dihydro-4H-[1,3]oxazin-2-ylamine] |
| 6.79 | 7.66 | C[C@]1(c2cc(NCC3CC3)ccc2F)N=C(N)OC[C@@H]1F [Example 8, (4R,5R)-4-[5-(Cyclopropylmethyl-amino)-2-fluoro-phenyl]-5-fluoro-4-methyl-5,6-dihydro-4H-[1,3]oxazin-2-ylamine] |
| 6.23 | 7.41 | C[C@]1(F)COC(N)=N[C@]1(C)c1cc(NCc2nn(C(F)F)cc2Cl)ccc1F [Example 12, (4R,5R)-4-{5-[(4-Chloro-1-difluoromethyl-1H-pyrazol-3-ylmethyl)-amino]-2-fluoro-phenyl}-5-fluoro-4,5-dimethyl-5,6-dihydro-4H-[1,3]oxazin-2-ylamine] |
| 7.10 | 7.32 | Cn1cc(Cl)c(CNc2ccc(F)c([C@@]3(C)N=C(N)OC[C@]3(C)F)c2)n1 [Example 13, (4R,5R)-4-{5-[(4-Chloro-1-methyl-1H-pyrazol-3-ylmethyl)-amino]-2-fluoro-phenyl}-5-fluoro-4,5-dimethyl-5,6-dihydro-4H-[1,3]oxazin-2-ylamine] |
| 5.60 | 6.95 | C[C@]1(c2cc(NCc3nn(C(F)F)cc3Cl)ccc2F)N=C(N)OCC1(F)F [Example 16, (R)-4-{5-[(4-Chloro-1-difluoromethyl-1H-pyrazol-3-ylmethyl)-amino]-2-fluoro-phenyl}-5,5-difluoro-4-methyl-5,6-dihydro-4H-[1,3]oxazin-2-ylamine] |
| 5.78 | 6.51 | C[C@]1(c2cc(NCC3CC3)ccc2F)N=C(N)OCC1(F)F [Example 25, (R)-4-[5-(Cyclopropylmethyl-amino)-2-fluoro-phenyl]-5,5-difluoro-4-methyl-5,6-dihydro-4H-[1,3]oxazin-2-ylamine] |
| 4.96 | 5.22 | Cc1ccc(Cc2cc3cc(F)c([C@@]4(C)N=C(N)OCC4(F)F)cc3[nH]2)cc1 [Example 40, (R)-5,5-Difluoro-4-[5-fluoro-2-(4-methyl-benzyl)-3H-indol-6-yl]-4-methyl-5,6-dihydro-4H-[1,3]oxazin-2-ylamine] |
| 5.38 | 5.78 | CC1(C)OC(N)=N[C@](C)(c2cc(Nc3ccccc3C#N)ccc2F)C1(F)F [Example 43, 2-[3-((R)-2-Amino-5,5-difluoro-4,6,6-trimethyl-5,6-dihydro-4H-[1,3]oxazin-4-yl)-4-fluoro-phenylamino]-benzonitrile] |
| 5.53 | 5.68 | COc1ccccc1Nc1ccc(F)c([C@@]2(C)N=C(N)OC(C)(C)C2(F)F)c1 [Example 44, (R)-5,5-Difluoro-4-[2-fluoro-5-(2-methoxy-phenylamino)-phenyl]-4,6,6-trimethyl-5,6-dihydro-4H-[1,3]oxazin-2-ylamine] |
| 5.85 | 6.54 | CC1(C)OC(N)=N[C@](C)(c2cc(NC3CCCC3)ccc2F)C1(F)F [Example 48, (R)-4-(5-Cyclopentylamino-2-fluoro-phenyl)-5,5-difluoro-4,6,6-trimethyl-5,6-dihydro-4H-[1,3]oxazin-2-ylamine] |
| 5.47 | 4.84 | CC1(C)OC(N)=N[C@](C)(c2cc(-c3cc(Cl)cc(Cl)c3)ccc2F)C1(F)F [Example 51, (R)-4-(3′,5′-Dichloro-4-fluoro-biphenyl-3-yl)-5,5-difluoro-4,6,6-trimethyl-5,6-dihydro-4H-[1,3]oxazin-2-ylamine] |
